This passage reports Ki and Ratio Ki results from ChEMBL document CHEMBL1141652 (J Med Chem, 2008).

Assay [1] deals with Disintegrin and metalloproteinase domain-containing protein 17 (Homo sapiens, UniProt P78536).
Description: Inhibition of human recombinant TACE
Assay [2] can be described thus: Selectivity for human recombinant TACE over MMP3.
Assay [3] is described as follows: Selectivity for human recombinant TACE over ADAM10.
Assay [4] is described as follows: Selectivity for human recombinant TACE over MMP14.
Assay [5] is described as follows: Selectivity for human recombinant TACE over MMP7.
Assay [6] is described as follows: Selectivity for human recombinant TACE over MMP1.
A short description of assay [7]: Selectivity for human recombinant TACE over MMP2.
A short description of assay [8]: Selectivity for human recombinant TACE over BMP1.

Chain of Disintegrin and metalloproteinase domain-containing protein 17 (P78536 whole entry, the tested form may be a part): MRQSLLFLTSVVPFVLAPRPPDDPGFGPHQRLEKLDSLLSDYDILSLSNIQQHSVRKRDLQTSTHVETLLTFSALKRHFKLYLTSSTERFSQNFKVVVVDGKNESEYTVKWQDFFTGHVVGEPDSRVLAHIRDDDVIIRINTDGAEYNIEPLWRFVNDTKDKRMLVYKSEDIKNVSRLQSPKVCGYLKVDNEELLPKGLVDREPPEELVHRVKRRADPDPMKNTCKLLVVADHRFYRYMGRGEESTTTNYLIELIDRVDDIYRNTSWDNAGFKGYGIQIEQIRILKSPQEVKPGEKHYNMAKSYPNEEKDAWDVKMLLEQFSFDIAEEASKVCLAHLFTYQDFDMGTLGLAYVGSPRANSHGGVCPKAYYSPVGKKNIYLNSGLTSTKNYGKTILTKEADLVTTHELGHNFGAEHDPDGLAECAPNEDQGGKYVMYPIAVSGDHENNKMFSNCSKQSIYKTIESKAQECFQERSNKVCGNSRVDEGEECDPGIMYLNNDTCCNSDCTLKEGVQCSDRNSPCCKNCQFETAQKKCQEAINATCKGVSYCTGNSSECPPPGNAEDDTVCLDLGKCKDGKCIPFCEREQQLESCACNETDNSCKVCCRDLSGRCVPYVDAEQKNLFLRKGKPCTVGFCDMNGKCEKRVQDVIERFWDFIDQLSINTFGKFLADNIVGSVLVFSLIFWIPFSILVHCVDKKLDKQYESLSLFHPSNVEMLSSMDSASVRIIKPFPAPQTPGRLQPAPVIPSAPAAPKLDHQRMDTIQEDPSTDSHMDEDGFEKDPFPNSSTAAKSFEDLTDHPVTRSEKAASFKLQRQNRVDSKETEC

The molecule `COC(=O)[C@@]1(Cc2ccc(OCc3ccccc3)cc2)C[C@@H]1C(=O)NO` (racemic) showed a Ki in assay [1] of 800 nM.

With `COC(=O)[C@]1(c2cccc(Oc3ccccc3)c2)C[C@H]1C(=O)NO`, in assay [1], the affinity, expressed as Ki, was 1100 nM.

The molecule `Cc1cc(COc2cccc([C@@]3(C(=O)N(C)Cc4ccccc4)C[C@H]3C(=O)NO)c2)c2ccccc2n1` registered a Ki in assay [1] of 3000 nM.

As to `Cc1cc(COc2ccc(C[C@]3(C(=O)N(C)C)C[C@@H]3C(=O)NO)cc2)c2ccccc2n1`, the affinity in assay [1] corresponds to a Ki of 1 nM.

`COC(=O)[C@]1(c2cccc(OCc3cccc(F)c3)c2)C[C@H]1C(=O)NO` registered an inhibition constant (Ki) in assay [1] of 80 nM.

Consider `CC#CCOc1ccc(C[C@]2(C(N)=O)C[C@@H]2C(=O)NO)cc1`, for which the Ki in assay [1] was 80 nM.

For `COC(=O)[C@]1(c2cccc(OCc3ccc(Cl)c(Cl)c3)c2)C[C@H]1C(=O)NO`, the Ratio Ki in assay [2] stood at 600; in assay [3], 10; in assay [4] it was 2400; in assay [5], 5400; in assay [6] it was 6800; in assay [7], 2800. Also, in assay [8], the Ratio Ki stood at 400. The same molecule registered a Ki in assay [1] of 11 nM.

`Cc1cc(COc2cccc([C@@]3(C(=O)NCc4ccccc4)C[C@H]3C(=O)NO)c2)c2ccccc2n1` displayed a Ki in assay [1] of 140 nM.

For the molecule `Cc1cc(COc2cccc([C@@]3(C(N)=O)C[C@H]3C(=O)NO)c2)c2ccccc2n1` (relative stereo), the affinity in assay [1], expressed as Ki, was 700 nM.

Take `CC#CCOc1cccc([C@@]2(C(=O)OC)C[C@H]2C(=O)NO)c1`: in assay [1], the Ki was found to be 1600 nM.

In assay [1], `Cc1cc(COc2cccc([C@@]3(C(=O)N(C)C)C[C@H]3C(=O)NO)c2)c2ccccc2n1` came in with a Ki of 2700 nM.

The molecule `NC(=O)C1(c2cccc(OCc3ccccc3)c2)CC1C(=O)NO` (stereo not given) came in with a Ki in assay [1] of 1200 nM.

`COC(=O)[C@]1(c2cccc(OCc3cccc(C(F)(F)F)c3)c2)C[C@H]1C(=O)NO` came in with a Ki in assay [1] of 70 nM.

In assay [1], `CNC(=O)[C@@]1(Cc2ccc(OCc3cc(C)nc4ccccc34)cc2)C[C@@H]1C(=O)NO` had a Ki of 14 nM.

As to `Cc1cc(COc2cccc([C@@]3(C(=O)NC4CCCCC4)C[C@H]3C(=O)NO)c2)c2ccccc2n1`, in assay [1], the affinity corresponds to a Ki of 9 nM.

With `COC(=O)[C@@]1(Cc2ccc(OCCc3ccc4ccccc4c3)cc2)C[C@@H]1C(=O)NO`, the inhibitory constant (Ki) in assay [1] is more than 100000 nM.

`COC(=O)[C@]1(c2cccc(OCCc3ccc4ccccc4c3)c2)C[C@H]1C(=O)NO` gave a Ki in assay [1] of 60 nM.

On to `Cc1cc(COc2cccc([C@@]3(C(=O)Nc4ccccc4)C[C@H]3C(=O)NO)c2)c2ccccc2n1`, for which the inhibitory constant (Ki) in assay [1] is 11 nM.

In assay [1], `COC(=O)C1(Cc2ccc(OCc3ccccc3)cc2)CC1C(=O)NO` (racemic) displayed a Ki of 800 nM.

The molecule `COC(=O)[C@@]1(Cc2ccc(OCC3CCCCC3)cc2)C[C@@H]1C(=O)NO` displayed a Ki in assay [1] of 26000 nM.

`Cc1cc(COc2cccc([C@@]3(C(=O)N4CCN(C)CC4)C[C@H]3C(=O)NO)c2)c2ccccc2n1` yielded an inhibition constant (Ki) in assay [1] of 5000 nM.

For the molecule `COC(=O)[C@]1(c2cccc(OCCc3cccc4ccccc34)c2)C[C@H]1C(=O)NO`, the affinity in assay [1], expressed as Ki, was 50 nM.

The molecule `CNC(=O)[C@]1(c2cccc(OCc3cc(C)nc4ccccc34)c2)C[C@H]1C(=O)NO` gave a Ki in assay [1] of 100 nM.

As for `COC(=O)[C@@]1(Cc2ccc(OCCc3cccc4ccccc34)cc2)C[C@@H]1C(=O)NO`, the Ki in assay [1] was more than 100000 nM.

On to `COC(=O)[C@@]1(Cc2ccc(OCc3ccccc3Cl)cc2)C[C@@H]1C(=O)NO`, for which the inhibitory constant (Ki) in assay [1] was found to be 260 nM.

`COC(=O)[C@]1(c2cccc(OCc3cccc(OC)c3)c2)C[C@H]1C(=O)NO` gave an inhibition constant Ki in assay [1] of 110 nM.

Regarding `CCOC(=O)[C@@]1(Cc2ccc(Oc3ccccc3)cc2)C[C@@H]1C(=O)NO`, affinity in assay [1] was put at a Ki of 3100 nM.

Turning to `COC(=O)[C@]1(c2cccc(OC)c2)C[C@H]1C(=O)NO`, the Ki in assay [1] amounted to 3000 nM.

`COC(=O)C1(c2cccc(OCc3ccccc3)c2)CC1C(=O)NO` (racemic) returned a Ki in assay [1] of 500 nM.

Consider `CCOC(=O)[C@]1(c2cccc(OCc3cc(C)nc4ccccc34)c2)C[C@H]1C(=O)NO`, for which the affinity in assay [1] corresponds to a Ki of 16 nM.

With `Cc1cc(COc2cccc([C@@]3(C(=O)OC(C)C)C[C@H]3C(=O)NO)c2)c2ccccc2n1`, the Ratio Ki in assay [2] was found to be 1500; in assay [3], 4; in assay [4], 3000; in assay [5], 12400; in assay [6], 7400; in assay [7] it was 1400. Moreover, the Ratio Ki in assay [8] amounted to 800. In assay [1], this molecule yielded a Ki of 8 nM.

As for `COC(=O)[C@]1(c2cccc(Oc3ccc(C)cc3)c2)C[C@H]1C(=O)NO`, the affinity in assay [1] corresponds to a Ki of 140 nM.

`COC(=O)[C@]1(c2cccc(Oc3ccccc3C)c2)C[C@H]1C(=O)NO`: the Ki in assay [1] is 240 nM.

For the molecule `CC#CCOc1ccc(C[C@]2(C(=O)OC)C[C@@H]2C(=O)NO)cc1`, in assay [1], the inhibitory constant (Ki) was 420 nM.

For the molecule `COC(=O)[C@]1(c2cccc(OCc3ccc(C(F)(F)F)cc3)c2)C[C@H]1C(=O)NO`, the Ratio Ki was 200 in assay [2]; 8 in assay [3]; 4000 in assay [4]; more than 600 in assay [5]; 1800 in assay [6]; more than 600 in assay [7]. The Ratio Ki in assay [8] was found to be 700. In assay [1], this molecule returned an inhibitory constant (Ki) of 18 nM.

In turn, `NC(=O)C1(Cc2ccc(OCc3ccccc3)cc2)CC1C(=O)NO` (racemic) gave an inhibitory constant (Ki) in assay [1] of 360 nM.

Turning to `CCOC(=O)C1(c2ccc(OCc3ccccc3)cc2)CC1C(=O)NO` (racemic), the affinity in assay [1], expressed as Ki, was 20000 nM.

As to `COC(=O)[C@]1(c2cccc(OCc3ccc4ccccc4c3)c2)C[C@H]1C(=O)NO`, the Ki in assay [1] stood at 3000 nM.

With `COC(=O)C1(Cc2cccc(OCc3ccccc3)c2)CC1C(=O)NO` (racemic), the affinity in assay [1], expressed as Ki, was 4000 nM.

With `COC(=O)[C@]1(c2cccc(OCCc3ccccc3)c2)C[C@H]1C(=O)NO`, affinity in assay [1] was put at a Ki of 290 nM.

`COC(=O)[C@]1(c2cccc(OCc3ccc(Cl)cc3)c2)C[C@H]1C(=O)NO`: in assay [1], the inhibition constant (Ki) was 50 nM.

`COC(=O)[C@]1(c2cccc(Oc3ccc4ccccc4c3)c2)C[C@H]1C(=O)NO` gave a Ki in assay [1] of 70 nM.

Consider `COC(=O)[C@]1(c2cccc(OCC3CCCCC3)c2)C[C@H]1C(=O)NO`, for which, in assay [1], the Ki is 900 nM.

Regarding `COC(=O)[C@@]1(Cc2ccc(OCc3ccc(Cl)c(Cl)c3)cc2)C[C@@H]1C(=O)NO`, the Ki in assay [1] came out at 130 nM.
